Measurements from patent publication US8716438B2, “Matricryptic ECM peptides for tissue reconstruction” (University of Pittsburgh—Of the Commonwealth System of …, priority 2009, dated 2014).

Key:
[1] = system: human perivascular stem cells; experiment: Boyden chamber chemotaxis of human perivascular stem cells; format: cell-based; conditions: Neuro Probe 48-well chamber, 3 hours, varying concentrations
Procedure: To confirm the chemotactic activity for progenitor cells within ECM degradation products, human perivascular stem cells were assessed in vitro in a Boyden chamber. The peptides IAGVGGEKSGGF (Peptide 1, SEQ ID NO: 1) and GPVGPSGPPGK (Peptide 2, SEQ ID NO: 2) were tested.
Perivascular stem cells were isolated from human muscle and propagated in culture as previously described (Crisan M, Yap S, Casteilla L, et al. A perivascular origin for mesenchymal stem cells in multiple human organs. Cell Stem Cell. 2008; 3:301-313).
Perivascular stem cells were cultured in Dulbecco's Modified Eagle's Medium (DMEM) supplemented with 20% fetal calf serum (FCS), 2 mM glutamine, 100 U/ml penicillin, and 100 μg/ml streptomycin in […] at 37° C.
Cultures at passages 10-12 and 50-70% confluence were starved in serum-free DMEM supplemented with 0.5% heat inactivated (FCS) for 14-17 hours. After starvation, cells were harvested in 0.25% trypsin and 0.53 mM EDTA, centrifuged, and resuspended in DMEM with 0.5% heat inactivated FCS at a concentration of 6×10^5 cells/ml for 1 hour. […] After 3 hours, cells facing the upper chamber on the filter were scraped off, and cells facing the bottom filter were fixed in methanol, stained with 500 nM DAPI (Sigma, D9564), and counted using ImageJ (NIH).

[2] = system: C57/BL6 mice, amputated third digit; experiment: Animal model of digit amputation (in vivo bone formation); design: species or system mouse
Procedure: Animal Model of Digit Amputation: Adult female 6- to 8-week-old C57/BL6 mice (n=4) were subjected to aseptic midsecond phalanx amputation of the third digit on both hind feet. At 0, 24, and 96 h after surgery 15 μL of 10 mM peptide 1 was injected into the footpad below the amputated digit using a 30-gauge needle. A second group of animals (n=4) were treated in the same way except that phosphate buffered saline (PBS) was injected instead of the peptide Animals were killed via cervical dislocation under isoflurane anesthesia at 14 days after surgery. Isolated toes were fixed in 10% neutral buffered formalin (NBF), embedded in paraffin and cut into 5 μm sections, before deparaffinization and staining with Alcian blue at pH 2.5, hematoxylin and eosin (H&E) or Masson's trichrome.

[3] = system: human cortical neuroepithelium stem (CTX) cells; experiment: CTX cells chemotaxis assay; format: cell-based; conditions: 5 h
Procedure: (§1) Source of Cells and Culture Conditions: Human perivascular stem cells were obtained as described above and were cultured in high-glucose Dulbecco's modified Eagle's medium (DMEM, Invitrogen) containing 20% fetal bovine serum (FBS; Thermo), 100 U/mL penicillin, and 100 μg/mL streptomycin (Sigma) at 37° C. in 5% CO2. Human cortical neuroepithelium stem (CTX) cells were cultured in DMEM:F12 supplemented with 0.03% Human albumin solution, 100 μg/ml human Apo-Transferrin, 16.2 μg/ml Putrescine DiHCl, 5 μg/ml Insulin, 60 ng/ml Progesterone, 2 mM L-Glutamine, 40 ng/ml Sodium Selinite, 10 ng/ml human bFGF, 20 ng/ml human Epidermal growth factor, and 100 nM 4-Hydroxytestosterone.
CTX Cells Chemotaxis Assay: CTX cells (human cortical neuroepithelium stem cells) were grown to ˜80% confluence, made into a single cell suspension, and the migration of 3×10^4 cells per well towards peptide 1 was assayed over 5 h. Migrated cells were stained by 4′,6-diamidino-2-phenylindole and quantified with ImageJ (NIH). All of the data are means of quadruplicate determinations with standard deviations. The assay was performed on three separate occasions.

[4] = system: human perivascular stem cells; experiment: Human perivascular stem cells osteogenic differentiation; format: cell-based
Procedure: as §1
Human Perivascular Stem Cells Osteogenic Differentiation: Confluent perivascular stem cells were cultured in osteogenic differentiation medium (DMEM with 20% FBS, 20 μM ascorbic acid and 1.76 mM β-glycophosphate) and analyzed for the presence of calcium deposits after 4, 7, and 14 days. Calcium deposits were detected via fixation in 10% NBF and staining with 2% Alizarin Red.

Sequence	Chemotactic activity for progenitor cells [1]	In vivo bone formation at the amputated digit ([2]; 15 μL of 10 mM peptide injected into footpad at 0, 24, 96 h, tissue at 14 days, H&E/trichrome, vs buffer)	Alcian blue staining of sulfated glycosaminoglycans (GAG) ([2]; 15 μL of 10 mM peptide into footpad, 14 days, buffer group showed diffuse GAG staining)	Migration of CTX cells compared to media without peptide ([3]; all concentrations of peptide, 3×10^4 cells per well)	Peptide concentration at which CTX cell migration was highest ([3]; range of concentrations) [µM]	Bone nodules in standard culture medium ([4]; 100 μM peptide, not seen without peptide)	Bone nodules in osteogenic differentiation medium ([4]; 1, 10 or 100 μM peptide, vs differentiation medium alone)
GPVGPSGPPGK (listed as Sus scrofa) [Peptide 2, 11-mer from porcine Collagen type III alpha 1, found in pepsin-digested UBM, chemically synthesized]	excellent chemotactic activity	–	–	–	–	–	–
IAGVGGEKSGGF (listed as Sus scrofa) [Peptide 1, 12-mer from porcine Collagen type III alpha 1, found in pepsin-digested UBM, chemically synthesized]	excellent chemotactic activity	formation of a bone like growth on the side of the amputated digit	concentrated GAG positive staining only at the bone nodule	increased migration	1	caused the formation of bone nodules	more bone nodules
